The supplement of paper PMC6045584
± gives the standard deviation of the averaged measurements.

Assays:
OLAPARIB = compound: O=C(c1cc(Cc2n[nH]c(=O)c3ccccc23)ccc1F)N1CCN(C(=O)C2CC2)CC1 [OLAPARIB]; experiment: surviving fraction relative to DMSO-only wells; higher = less growth inhibition; conditions: exposure time: 5 days
Outline: (§1)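 Lines were retained only if, across three screens, replicate Pearson r was >0.7 and median Z' was >0.3. Viability was measured as CellTiter-Glo luminescence and reported as surviving fraction relative to the median of DMSO-only wells. Readings followed 10 minutes at room temperature, after log-phase tumour cells seeded at 250–500 per well in 384-well plates had been exposed, from 24 hours after seeding, continuously for five days to inhibitors at 0.5, 1, 5, 10, 50, 100, 500 and 1000 nM.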

ABIRATERONE = compound: C[C@]12CC[C@H](O)CC1=CC[C@@H]1[C@@H]2CC[C@]2(C)C(c3cccnc3)=CC[C@@H]12 [ABIRATERONE]; experiment: as above; conditions: exposure time: 5 days
Outline: as §1

Test System | surviving fraction (OLAPARIB; 0.5 nM) | surviving fraction (OLAPARIB; 1 nM) | surviving fraction (OLAPARIB; 5 nM) | surviving fraction (OLAPARIB; 10 nM) | surviving fraction (OLAPARIB; 50 nM) | surviving fraction (OLAPARIB; 100 nM) | surviving fraction (OLAPARIB; 500 nM) | surviving fraction (OLAPARIB; 1000 nM) | surviving fraction (ABIRATERONE; 0.5 nM) | surviving fraction (ABIRATERONE; 1 nM) | surviving fraction (ABIRATERONE; 5 nM) | surviving fraction (ABIRATERONE; 10 nM) | surviving fraction (ABIRATERONE; 50 nM) | surviving fraction (ABIRATERONE; 100 nM) | surviving fraction (ABIRATERONE; 500 nM) | surviving fraction (ABIRATERONE; 1000 nM)
HUO3N1 BONE | 1.008 ± 0.0076 | 1.01 ± 0.024 | 1.06 ± 0.029 | 1.02 ± 0.031 | 1.03 ± 0.045 | 0.922 ± 0.032 | 0.913 ± 0.014 | 0.834 ± 0.02 | 1.03 ± 0.019 | 1.0307 ± 0.00058 | 1.07 ± 0.049 | 1.11 ± 0.025 | 1.07 ± 0.035 | 1.11 ± 0.029 | 1.02 ± 0.012 | 0.995 ± 0.046
JIMT1 BREAST | 0.917 ± 0.035 | 0.911 ± 0.024 | 0.9352 ± 0.0078 | 0.907 ± 0.023 | 0.934 ± 0.026 | 0.9217 ± 0.0036 | 0.9207 ± 0.0084 | 0.846 ± 0.025 | 0.9997 ± 0.0033 | 0.965 ± 0.027 | 0.981 ± 0.02 | 0.962 ± 0.013 | 1.08 ± 0.047 | 1.08 ± 0.032 | 1.02 ± 0.042 | 0.929 ± 0.012
JURKAT HAEMATOPOIETIC AND LYMPHOID TISSUE | 1.1 ± 0.022 | 1.12 ± 0.03 | 1.08 ± 0.03 | 1.07 ± 0.014 | 1.038 ± 0.0047 | 0.994 ± 0.024 | 1 ± 0.019 | 0.847 ± 0.029 | 1.09 ± 0.027 | 1.106 ± 0.0066 | 1.09 ± 0.022 | 1.07 ± 0.016 | 1.08 ± 0.018 | 1.03 ± 0.037 | 1.01 ± 0.022 | 0.995 ± 0.029
KPD BONE | 0.983 ± 0.011 | 0.946 ± 0.024 | 0.969 ± 0.024 | 0.995 ± 0.093 | 0.959 ± 0.059 | 0.965 ± 0.022 | 0.765 ± 0.007 | 0.711 ± 0.033 | 0.966 ± 0.05 | 0.993 ± 0.054 | 1.02 ± 0.012 | 1.07 ± 0.043 | 1.07 ± 0.054 | 1.09 ± 0.041 | 1.01 ± 0.035 | 0.976 ± 0.054
LM7 BONE | 1 ± 0.081 | 0.976 ± 0.058 | 1.02 ± 0.071 | 0.963 ± 0.015 | 0.812 ± 0.042 | 0.829 ± 0.02 | 0.614 ± 0.0076 | 0.554 ± 0.014 | 0.954 ± 0.014 | 0.963 ± 0.097 | 1.07 ± 0.15 | 1.01 ± 0.026 | 1.05 ± 0.021 | 1.06 ± 0.094 | 0.97 ± 0.058 | 0.979 ± 0.038
LNCAP PROSTATE | 1.09 ± 0.1 | 1.03 ± 0.16 | 1 ± 0.096 | 1.032 ± 0.0049 | 1.12 ± 0.086 | 1.02 ± 0.29 | 0.97 ± 0.061 | 0.82 ± 0.13 | 0.875 ± 0.08 | 0.996 ± 0.24 | 0.92 ± 0.026 | 0.869 ± 0.11 | 0.93 ± 0.1 | 0.976 ± 0.15 | 0.84 ± 0.12 | 0.791 ± 0.14
MCF7 BREAST | 0.891 ± 0.015 | 0.941 ± 0.014 | 0.946 ± 0.085 | 0.907 ± 0.037 | 0.96 ± 0.039 | 0.906 ± 0.051 | 0.95 ± 0.026 | 0.943 ± 0.043 | 0.961 ± 0.071 | 0.917 ± 0.059 | 0.902 ± 0.098 | 0.945 ± 0.027 | 1.01 ± 0.024 | 0.874 ± 0.039 | 1.05 ± 0.066 | 0.921 ± 0.017
MDAMB134 BREAST | 0.96 ± 0.055 | 1.04 ± 0.17 | 1.04 ± 0.13 | 1.05 ± 0.03 | 0.971 ± 0.21 | 0.738 ± 0.042 | 0.8595 ± 0.0035 | 0.823 ± 0.028 | 1.12 ± 0.043 | 0.896 ± 0.18 | 1.36 ± 0.096 | 0.943 ± 0.063 | 1.12 ± 0.049 | 1.15 ± 0.37 | 0.927 ± 0.13 | 0.965 ± 0.098
MDAMB157 BREAST | 1.01 ± 0.093 | 1.06 ± 0.035 | 0.992 ± 0.085 | 0.968 ± 0.051 | 0.991 ± 0.096 | 0.965 ± 0.043 | 0.903 ± 0.079 | 0.729 ± 0.04 | 0.85 ± 0.017 | 0.892 ± 0.1 | 0.912 ± 0.081 | 1.12 ± 0.1 | 1.01 ± 0.092 | 1.09 ± 0.14 | 1.01 ± 0.1 | 0.957 ± 0.11
MDAMB231 BREAST | 0.961 ± 0.02 | 0.98 ± 0.031 | 0.974 ± 0.0099 | 0.97 ± 0.029 | 0.929 ± 0.017 | 0.957 ± 0.013 | 0.899 ± 0.015 | 0.807 ± 0.016 | 0.991 ± 0.011 | 0.998 ± 0.048 | 1.02 ± 0.023 | 0.992 ± 0.031 | 1.02 ± 0.013 | 1.03 ± 0.024 | 1.02 ± 0.014 | 0.942 ± 0.027
MDAMB361 BREAST | 0.82 ± 0.026 | 0.793 ± 0.076 | 0.773 ± 0.094 | 0.767 ± 0.042 | 0.612 ± 0.064 | 0.603 ± 0.048 | 0.577 ± 0.051 | 0.523 ± 0.036 | 0.881 ± 0.035 | 0.872 ± 0.096 | 0.82 ± 0.045 | 0.825 ± 0.076 | 1.53 ± 0.14 | 0.91 ± 0.04 | 0.837 ± 0.072 | 0.719 ± 0.07
